Assay: excess molar enthalpy (molar enthalpy of mixing); xn = mol fraction of the nth substance listed
Settings: 298.15 K, 100 kPa

excess molar enthalpy (x2 = 0.0754) [kcal/mol] | excess molar enthalpy (x2 = 0.1116) [kcal/mol] | excess molar enthalpy (x2 = 0.2147) [kcal/mol] | excess molar enthalpy (x2 = 0.3102) [kcal/mol] | excess molar enthalpy (x2 = 0.5338) [kcal/mol] | excess molar enthalpy (x2 = 0.6007) [kcal/mol] | excess molar enthalpy (x2 = 0.677) [kcal/mol] | excess molar enthalpy (x2 = 0.214) [kcal/mol] | excess molar enthalpy (x2 = 0.3094) [kcal/mol] | excess molar enthalpy (x2 = 0.4262) [kcal/mol] | excess molar enthalpy (x2 = 0.5328) [kcal/mol] | excess molar enthalpy (x2 = 0.6067) [kcal/mol] | excess molar enthalpy (x2 = 0.6761) [kcal/mol] | excess molar enthalpy (x2 = 0.72) [kcal/mol] | Compound
0.061 | 0.0808 | 0.109 | 0.118 | 0.102 | 0.0884 | 0.111 |  |  |  |  |  |  |  | CC(C)OC(C)C + CCCCO
 |  |  |  |  |  |  | 0.165 | 0.189 | 0.198 | 0.187 | 0.17 | 0.146 | 0.133 | CC(C)OC(C)C + CCC(C)O
